From US7846959B2, “Raf modulators and methods of use” (Exelixis, Inc., priority 2004, dated 2010) come the findings set out here.

Usually IC50 stands for the concentration at which inhibition is half-maximal.

Where two headings read alike, the source gives them in different places. Bounds are passed on as bounds.

The target of one test is B-Raf (Homo sapiens, UniProt P15056). As to the kind of experiment: Luciferase-coupled chemiluminescence kinase assay (ATP consumption), B-Raf. It counts as biochemical. The procedure, abridged:
(§1)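 Pre-incub. kinase […] + cpd, 30 min RT (20 mM Tris pH 7.5, 10 mM MgCl2, 0.03% TX-100, 1 mM DTT). Start w/ ATP, 3 h ambient. Luciferase-luciferin mix added and luminescence read. Total ATP use 25-60%. IC50 derived.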

The target of the next test is c-Raf (Homo sapiens, UniProt P04049). As to the kind of experiment: Luciferase-coupled chemiluminescence kinase assay (ATP consumption), c-Raf. It counts as biochemical. The procedure, abridged: as §1
The mark [1] stands for this setting: read-out: bRaf (inhibition indicated as IC50).
[2] abbreviates: read-out: cRaf-1 (inhibition indicated as IC50).

c-Raf, sequence (P04049 whole entry): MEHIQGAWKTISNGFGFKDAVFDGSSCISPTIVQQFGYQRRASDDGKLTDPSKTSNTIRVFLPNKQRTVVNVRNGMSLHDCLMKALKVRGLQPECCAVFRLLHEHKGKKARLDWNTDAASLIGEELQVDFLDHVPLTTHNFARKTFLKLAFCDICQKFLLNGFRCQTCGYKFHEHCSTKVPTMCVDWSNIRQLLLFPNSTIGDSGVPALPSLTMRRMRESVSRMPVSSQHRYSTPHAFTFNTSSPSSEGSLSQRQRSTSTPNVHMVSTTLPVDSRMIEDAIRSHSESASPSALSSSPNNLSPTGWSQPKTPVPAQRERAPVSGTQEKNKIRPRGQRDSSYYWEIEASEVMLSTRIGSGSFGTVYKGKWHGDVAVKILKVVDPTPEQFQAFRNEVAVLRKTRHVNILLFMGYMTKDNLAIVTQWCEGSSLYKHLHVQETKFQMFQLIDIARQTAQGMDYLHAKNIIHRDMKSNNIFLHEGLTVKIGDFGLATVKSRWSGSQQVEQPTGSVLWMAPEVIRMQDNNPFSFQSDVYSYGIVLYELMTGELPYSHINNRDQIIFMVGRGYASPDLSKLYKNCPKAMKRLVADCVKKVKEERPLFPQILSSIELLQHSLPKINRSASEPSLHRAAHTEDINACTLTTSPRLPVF
B-Raf, sequence (P15056 whole entry): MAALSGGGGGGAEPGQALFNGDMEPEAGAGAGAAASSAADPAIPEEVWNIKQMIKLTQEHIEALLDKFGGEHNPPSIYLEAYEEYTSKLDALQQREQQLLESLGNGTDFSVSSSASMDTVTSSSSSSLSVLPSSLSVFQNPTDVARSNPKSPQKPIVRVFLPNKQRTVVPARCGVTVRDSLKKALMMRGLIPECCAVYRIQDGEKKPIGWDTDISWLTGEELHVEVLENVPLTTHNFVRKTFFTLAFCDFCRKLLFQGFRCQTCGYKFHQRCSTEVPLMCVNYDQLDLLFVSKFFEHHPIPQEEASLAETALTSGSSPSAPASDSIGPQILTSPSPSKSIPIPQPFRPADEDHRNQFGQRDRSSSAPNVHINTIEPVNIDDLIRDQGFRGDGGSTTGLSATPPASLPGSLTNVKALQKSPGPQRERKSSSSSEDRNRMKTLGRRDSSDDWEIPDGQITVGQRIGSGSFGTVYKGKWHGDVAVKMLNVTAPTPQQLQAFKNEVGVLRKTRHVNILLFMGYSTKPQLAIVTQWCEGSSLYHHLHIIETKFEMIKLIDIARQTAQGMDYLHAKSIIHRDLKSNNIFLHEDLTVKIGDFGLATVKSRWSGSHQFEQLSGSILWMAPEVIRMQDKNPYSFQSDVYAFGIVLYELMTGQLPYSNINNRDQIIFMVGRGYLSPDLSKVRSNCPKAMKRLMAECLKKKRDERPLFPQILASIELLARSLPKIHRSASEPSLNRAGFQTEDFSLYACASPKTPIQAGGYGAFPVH

In the case of `O=C(Nc1nc2cc(C3(O)c4ccccc4C(=O)N3Cc3ccccc3)ccc2[nH]1)N1CCOCC1` (stereo not drawn) [Entry 188, N-{5-[1-hydroxy-3-oxo-2-(phenylmethyl)-2,3-dihydro-1H-isoindol-1-yl]-1H-benzimidazol-2-yl}morpholine-4-carboxamide], the half-inhibitory concentration (IC50) at B-Raf (read-out: bRaf IC50) was in the range of 1000 to 10000 nM; at c-Raf (read-out: cRaf-1 IC50) it was 100 to 1000 nM.

Regarding `C#Cc1cccc(N2C(=O)c3c(F)ccc(F)c3C2(O)c2ccc3[nH]c(NC(=O)OC)nc3c2)c1F` (stereo not drawn) [Entry 355, methyl {5-[2-(3-ethynyl-2-fluorophenyl)-4,7-difluoro-1-hydroxy-3-oxo-2,3-dihydro-1H-isoindol-1-yl]-1H-benzimidazol-2-yl}carbamate], the IC50 on B-Raf (setting [1]) and at c-Raf (setting [2]) was less than 100 nM each time.

With `O=C(Nc1nc2ccc(C3(O)c4ccccc4C(=O)N3c3cccc(Cl)c3F)cc2[nH]1)OCC1CCC1` (stereo not drawn) [Entry 344, cyclobutylmethyl {6-[2-(3-chloro-2-fluorophenyl)-1-hydroxy-3-oxo-2,3-dihydro-1H-isoindol-1-yl]-1H-benzimidazol-2-yl}carbamate], the IC50 on B-Raf (setting [1]) and on c-Raf (setting [2]) was less than 100 nM each time.

As to `O=C1COc2ccc(C3(O)c4ccccc4C(=O)N3c3cccc(Oc4ccccc4)c3)cc2N1` (stereo not drawn) [Entry 79, 6-{1-hydroxy-3-oxo-2-[3-(phenyloxy)phenyl]-2,3-dihydro-1H-isoindol-1-yl}-2H-1,4-benzoxazin-3(4H)-one], the IC50 is 1000 to 10000 nM on B-Raf (read-out: bRaf IC50) and 100 to 1000 nM at c-Raf (read-out: cRaf-1 IC50).

As for `COC(=O)Nc1nc2cc(C3(O)c4ccccc4C(=O)N3c3ccc(F)cc3)ccc2[nH]1` (stereo not drawn) [Entry 140, methyl {5-[2-(4-fluorophenyl)-1-hydroxy-3-oxo-2,3-dihydro-1H-isoindol-1-yl]-1H-benzimidazol-2-yl}carbamate], the IC50 at B-Raf (read-out: bRaf IC50) and on c-Raf (read-out: cRaf-1 IC50) was less than 100 nM each time.

On to `COC(=O)Nc1nc2ccc(C3(O)c4c(F)cccc4C(=O)N3c3cccc(Cl)c3F)cc2[nH]1` (stereo not drawn) [Entry 347, methyl {6-[2-(3-chloro-2-fluorophenyl)-7-fluoro-1-hydroxy-3-oxo-2,3-dihydro-1H-isoindol-1-yl]-1H-benzimidazol-2-yl}carbamate], for which the IC50 at B-Raf (setting [1]) and at c-Raf (setting [2]) was less than 100 nM in each case.

For `C#Cc1cccc(N2C(=O)c3ccccc3C2(O)c2ccc3[nH]c(NC(=O)OC)nc3c2)c1C` (stereo not drawn) [Entry 372, methyl {5-[2-(3-ethynyl-2-methylphenyl)-1-hydroxy-3-oxo-2,3-dihydro-1H-isoindol-1-yl]-1H-benzimidazol-2-yl}carbamate], the IC50 on B-Raf (setting [1]) and on c-Raf (setting [2]) was less than 100 nM each time.

As to `COC(=O)Nc1nc2cc(C3(O)c4ccccc4C(=O)N3c3ccccc3F)ccc2[nH]1` (stereo not drawn) [Entry 142, methyl {5-[2-(2-fluorophenyl)-1-hydroxy-3-oxo-2,3-dihydro-1H-isoindol-1-yl]-1H-benzimidazol-2-yl}carbamate], the IC50 at B-Raf (read-out: bRaf IC50) and on c-Raf (read-out: cRaf-1 IC50) was less than 100 nM each time.

Consider `COC(=O)Nc1nc2cc(C3(O)c4ccccc4C(=O)N3c3cccc(N(C)c4ccccc4)c3)ccc2[nH]1` (stereo not drawn) [Entry 267, methyl [5-(1-hydroxy-2-{3-[methyl(phenyl)amino]phenyl}-3-oxo-2,3-dihydro-1H-isoindol-1-yl)-1H-benzimidazol-2-yl]carbamate], for which the half-maximal inhibitory concentration (IC50) at B-Raf (read-out: bRaf IC50) and on c-Raf (read-out: cRaf-1 IC50) was less than 100 nM each time.

As to `COC(=O)Nc1nc2ccc(C(=O)c3ccccc3C(=O)Nc3cc(Cl)ccc3F)cc2[nH]1` [Entry 402, methyl {6-[(2-{[(5-chloro-2-fluorophenyl)amino]carbonyl}phenyl)carbonyl]-1H-benzimidazol-2-yl}carbamate], the half-inhibitory concentration (IC50) on B-Raf (setting [1]) and at c-Raf (setting [2]) was less than 100 nM each time.

On to `CNc1nc2cc(C3(O)c4ccccc4C(=O)N3Cc3ccccc3)ccc2[nH]1` (stereo not drawn) [Entry 84, 3-hydroxy-3-[2-(methylamino)-1H-benzimidazol-5-yl]-2-(phenylmethyl)-2,3-dihydro-1H-isoindol-1-one], for which the half-maximal inhibitory concentration (IC50) at B-Raf (read-out: bRaf IC50) and on c-Raf (read-out: cRaf-1 IC50) was 1000 to 10000 nM throughout.

In the case of `COC(=O)Nc1nc2cc(C3(O)c4ccccc4C(=O)N3c3cc(Cl)cc(F)c3F)ccc2[nH]1` (stereo not drawn) [Entry 299, methyl {5-[2-(5-chloro-2,3-difluorophenyl)-1-hydroxy-3-oxo-2,3-dihydro-1H-isoindol-1-yl]-1H-benzimidazol-2-yl}carbamate], the IC50 at B-Raf (setting [1]) and on c-Raf (setting [2]) was less than 100 nM throughout.

As to `O=C(CCCN1CCCCC1)Nc1nc2cc(C3(O)c4ccccc4C(=O)N3c3ccc(F)cc3)ccc2[nH]1` (stereo not drawn) [Entry 287, N-{5-[2-(4-fluorophenyl)-1-hydroxy-3-oxo-2,3-dihydro-1H-isoindol-1-yl]-1H-benzimidazol-2-yl}-4-piperidin-1-ylbutanamide], the IC50 at B-Raf (setting [1]) and at c-Raf (setting [2]) was less than 100 nM in each case.

For the molecule `CC(C)C(=O)Nc1nc2ccc(C3(O)c4ccccc4C(=O)N3Cc3ccccc3)cc2[nH]1` (stereo not drawn) [Entry 240, N-{6-[1-hydroxy-3-oxo-2-(phenylmethyl)-2,3-dihydro-1H-isoindol-1-yl]-1H-benzimidazol-2-yl}-2-methylpropanamide], the IC50 on B-Raf (read-out: bRaf IC50) and at c-Raf (read-out: cRaf-1 IC50) was 100 to 1000 nM each time.

Consider `COC(=O)Nc1nc2cc(C(=O)c3ccccc3C(=O)NNc3ccccc3)ccc2[nH]1` [Entry 271, methyl [5-({2-[(2-phenylhydrazino)carbonyl]phenyl}carbonyl)-1H-benzimidazol-2-yl]carbamate], for which the 50% inhibitory concentration (IC50) on B-Raf (setting [1]) and at c-Raf (setting [2]) was 100 to 1000 nM each time.

For the molecule `COC(=O)Nc1nc2cc(C3(O)c4ccccc4C(=O)N3c3cccc(F)c3F)ccc2[nH]1` (stereo not drawn) [Entry 184, methyl {5-[2-(2,3-difluorophenyl)-1-hydroxy-3-oxo-2,3-dihydro-1H-isoindol-1-yl]-1H-benzimidazol-2-yl}carbamate], the IC50 on B-Raf (read-out: bRaf IC50) and at c-Raf (read-out: cRaf-1 IC50) was less than 100 nM each time.

For the molecule `CC(C)OC(=O)Nc1nc2ccc(C3(O)c4ccccc4C(=O)N3c3cccc(Cl)c3F)cc2[nH]1` (stereo not drawn) [Entry 333, 1-methylethyl {6-[2-(3-chloro-2-fluorophenyl)-1-hydroxy-3-oxo-2,3-dihydro-1H-isoindol-1-yl]-1H-benzimidazol-2-yl}carbamate], the IC50 on B-Raf (setting [1]) and at c-Raf (setting [2]) was less than 100 nM in each case.

With `O=C1COc2ccc(C3(O)c4ccccc4C(=O)N3Cc3cccc(I)c3)cc2N1` (stereo not drawn) [Entry 55, 6-{1-hydroxy-2-[(3-iodophenyl)methyl]-3-oxo-2,3-dihydro-1H-isoindol-1-yl}-2H-1,4-benzoxazin-3(4H)-one], the IC50 at B-Raf (read-out: bRaf IC50) and at c-Raf (read-out: cRaf-1 IC50) was 1000 to 10000 nM each time.

With `CS(=O)(=O)c1cccc(N2C(=O)c3ccccc3C2(O)c2ccc3c(c2)NC(=O)CO3)c1` (stereo not drawn) [Entry 69, 6-{1-hydroxy-2-[3-(methylsulfonyl)phenyl]-3-oxo-2,3-dihydro-1H-isoindol-1-yl}-2H-1,4-benzoxazin-3(4H)-one], the IC50 at B-Raf (read-out: bRaf IC50) and on c-Raf (read-out: cRaf-1 IC50) was not below 10000 nM each time.

As to `CCCC(=O)Nc1nc2ccc(C3(O)c4ccccc4C(=O)N3c3ccc(F)cc3)cc2[nH]1` (stereo not drawn) [Entry 265, N-{6-[2-(4-fluorophenyl)-1-hydroxy-3-oxo-2,3-dihydro-1H-isoindol-1-yl]-1H-benzimidazol-2-yl}butanamide], the IC50 at B-Raf (read-out: bRaf IC50) and on c-Raf (read-out: cRaf-1 IC50) was less than 100 nM in each case.

For `CN(C)CCOC(=O)Nc1nc2ccc(C3(O)c4ccccc4C(=O)N3c3cccc(Cl)c3F)cc2[nH]1` (stereo not drawn) [Entry 291, 2-(dimethylamino)ethyl {6-[2-(3-chloro-2-fluorophenyl)-1-hydroxy-3-oxo-2,3-dihydro-1H-isoindol-1-yl]-1H-benzimidazol-2-yl}carbamate], the IC50 on B-Raf (setting [1]) and at c-Raf (setting [2]) was less than 100 nM in each case.

Regarding `COC(=O)Nc1nc2cc(C3(O)c4ccccc4C(=O)N3C(C)c3ccc(Cl)s3)ccc2[nH]1` (stereo not drawn) [Entry 202, methyl (5-{2-[1-(5-chloro-2-thienyl)ethyl]-1-hydroxy-3-oxo-2,3-dihydro-1H-isoindol-1-yl}-1H-benzimidazol-2-yl)carbamate], the IC50 at B-Raf (read-out: bRaf IC50) and at c-Raf (read-out: cRaf-1 IC50) was less than 100 nM throughout.

`O=C1c2ccccc2C(O)(c2ccc3[nH]c(=O)[nH]c3c2)N1c1cccc(Cl)c1F` (stereo not drawn) [Entry 306, 5-[2-(3-chloro-2-fluorophenyl)-1-hydroxy-3-oxo-2,3-dihydro-1H-isoindol-1-yl]-1,3-dihydro-2H-benzimidazol-2-one]: the IC50 at B-Raf (setting [1]) and on c-Raf (setting [2]) was 1000 to 10000 nM in each case.

In the case of `COC(=O)Nc1nc2cc(C3(O)c4ccccc4C(=O)N3Cc3cccc(OC)c3)ccc2[nH]1` (stereo not drawn) [Entry 117, methyl [5-(1-hydroxy-2-{[3-(methyloxy)phenyl]methyl}-3-oxo-2,3-dihydro-1H-isoindol-1-yl)-1H-benzimidazol-2-yl]carbamate], the IC50 at B-Raf (read-out: bRaf IC50) and at c-Raf (read-out: cRaf-1 IC50) was 100 to 1000 nM each time.

In the case of `CC[C@H](c1ccccc1)N1C(=O)c2ccccc2C1(O)c1ccc2[nH]c(NC(=O)OC)nc2c1` (stereo partly drawn) [Entry 182, methyl (5-{1-hydroxy-3-oxo-2-[(1R)-1-phenylpropyl]-2,3-dihydro-1H-isoindol-1-yl}-1H-benzimidazol-2-yl)carbamate], the IC50 at B-Raf (read-out: bRaf IC50) and at c-Raf (read-out: cRaf-1 IC50) was 100 to 1000 nM in each case.

Take `COC(=O)Nc1nc2ccc(C(=O)c3ccccc3C(=O)Nc3ccc(F)c(Cl)c3)cc2[nH]1` [Entry 401, methyl {6-[(2-{[(3-chloro-4-fluorophenyl)amino]carbonyl}phenyl)carbonyl]-1H-benzimidazol-2-yl}carbamate]: the 50% inhibitory concentration (IC50) at B-Raf (setting [1]) and at c-Raf (setting [2]) was less than 100 nM in each case.

For the molecule `COC(=O)Nc1nc2cc(C3(O)c4ccccc4C(=O)N3c3cc(Cl)cc(I)c3C)ccc2[nH]1` (stereo not drawn) [Entry 358, methyl {5-[2-(5-chloro-3-iodo-2-methylphenyl)-1-hydroxy-3-oxo-2,3-dihydro-1H-isoindol-1-yl]-1H-benzimidazol-2-yl}carbamate], the IC50 at B-Raf (setting [1]) and on c-Raf (setting [2]) was 100 to 1000 nM in each case.
